Values of other authors as cited in US20150141518A1, “WATER-MISCIBLE STABLE SOLUTION COMPOSITION FOR PHARMACEUTICALLY ACTIVE INGREDIENTS THAT ARE POORLY SOLUBLE IN WATER AND SUSCEPTIBLE TO CHEMICAL DEGRADATION” (Emphascience, Inc., priority 2013, published 2015).

Assays:
[1] = room temperature
[2] = accelerated at extremes of pH and higher temperatures

solubility of paracetamol in water [1]: ca. 13 mg/mL
overall rate of chemical degradation of paracetamol in solution [2]: first order kinetics
SMILES: CC(=O)Nc1ccc(O)cc1 [paracetamol]
